Laboratory results reported in the supplement of paper PMC3493320.

tested on: NCI-H295R; test: IC50 (antiproliferative, ATP content); settings: 48 h
Procedure, shortened: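 Following overnight culture of adrenocortical carcinoma cells (1500 per well) in 1536-well plates with serum-free ITS-supplemented DMEM, library compounds were pin-transferred at 8 final concentrations from 0.6 nM to 46 µM. Incubation lasted 48 h at 37 °C, 5% CO2, and the CellTiter-Glo signal was read after 20 min at room temperature. Data were fitted with a four-parameter logistic model. Each IC50 came from that fit after normalisation to vehicle and positive-control wells, and compounds without a concentration response were reported as above the top dose.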

Row | IC50 | SMILES
1 | > 46 µM | C=CCn1c(=O)n([C@@H]2O[C@H](CO)[C@@H](O)[C@H]2O)c2nc(N)[nH]c(=O)c21
2 | > 46 µM | CC(C)CC(=O)N[C@H](C(=O)N[C@H](C(=O)N[C@@H](CC(C)C)[C@@H](O)CC(=O)N[C@@H](C)C(=O)N[C@@H](CC(C)C)[C@@H](O)CC(=O)O)C(C)C)C(C)C
3 | > 46 µM | CCN(CC)CC(=O)Nc1c(C)cccc1C
4 | > 46 µM | CCOc1ccc(S(=O)(=O)O)c2cccnc12
5 | > 46 µM | COc1cc(C(=O)NCCCCCC(=O)O)cc(OC)c1OC
6 | > 46 µM | O=C([C@@H]([C@]1=CC=CC=C1)N=C)N[C@@](C2=O)([H])[C@@](N2[C@H]3[C@@]([O-])=O)([H])SC3(C)C.[Na+]
7 | > 46 µM | CC1(C)O[C@@H]2C[C@H]3[C@@H]4CCC5=CC(=O)C=C[C@]5(C)[C@H]4[C@@H](O)C[C@]3(C)[C@]2(C(=O)CO)O1
8 | > 46 µM | CCc1c2c(nc3ccc(OC(=O)N4CCC(N5CCCCC5)CC4)cc13)-c1cc3c(c(=O)n1C2)COC(=O)[C@]3(O)CC.Cl
9 | > 46 µM | CCCCCCCCCCCCCCCCCCCCCC(=O)Nc1ccn([C@@H]2O[C@H](CO)[C@@H](O)[C@@H]2O)c(=O)n1
10 | > 46 µM | O=C(O)CCc1nc(-c2ccccc2)c(-c2ccccc2)o1
11 | > 46 µM | CNC(=O)[C@H](Cc1c[nH]c2ccccc12)NC(=O)[C@@H](CC(=O)NO)CC(C)C
12 | > 46 µM | CCCCCNC(=N)N/N=C/c1c[nH]c2ccc(OC)cc12
13 | > 46 µM | COC(F)(F)C(Cl)Cl
14 | > 46 µM | CCCCCCCCCCCCSCCOCCO
15 | > 46 µM | NC(=O)OC[C@@H]1[C@H](NC(=O)/C(=N\OCC(=O)[O-])c2csc(N)n2)C(=O)N1S(=O)(=O)[O-].[Na+].[Na+]
16 | > 46 µM | O=C(O)c1ccccc1C(=O)Nc1ccc(S(=O)(=O)Nc2nccs2)cc1

Row | IC50 | SMILES
17 | > 46 µM | CS(=O)(=O)c1ccc(C2=C(c3ccccc3)C(=O)OC2)cc1
18 | > 46 µM | O=[C@](O)[C@H](CC1)NC1=O
19 | > 46 µM | CCC(C(=O)NC(N)=O)c1ccccc1 (stereo not drawn)
20 | > 46 µM | CNC(=NC#N)NCCSCc1nc[nH]c1C
21 | > 46 µM | C=CCNC(N)=S
22 | > 46 µM | Cc1cc2nc3c(=O)[nH]c(=O)nc-3n(C[C@H](O)[C@H](O)[C@H](O)CO)c2cc1C
23 | > 46 µM | CN1C[C@@H]2C[C@H]1CN2c1cc2c(cc1F)c(=O)c(C(=O)O)cn2C1CC1
24 | > 46 µM | CCCCC(=O)O[C@]1(C(=O)CO)CC[C@H]2[C@@H]3CCC4=CC(=O)CC[C@]4(C)[C@H]3[C@@H](O)C[C@@]21C
25 | > 46 µM | CCOc1cc(OCC)c(C(=O)CCC(=O)O)cc1OCC
26 | > 46 µM | FC(F)(F)COCC(F)(F)F
27 | > 46 µM | O=C(C2)N([C@]([H])1[C@@]([O-])=O)[C@]2([H])O\C1=C/CO.[Li+]
28 | > 46 µM | CC(C)NCC(O)COc1cccc2[nH]ccc12 (stereo not drawn)
29 | > 46 µM | CC[C@H](C)[C@H](N)C1=N[C@H](C(=O)N[C@@H](CC(C)C)C(=O)N[C@H](CCC(=O)O)C(=O)N[C@H](C(=O)N[C@H]2CCCCNC(=O)[C@H](CC(N)=O)NC(=O)[C@@H](CC(=O)O)NC(=O)[C@H](Cc3cnc[nH]3)NC(=O)[C@@H](Cc3ccccc3)NC(=O)[C@H]([C@@H](C)CC)NC(=O)[C@@H](CCCN)NC2=O)[C@@H](C)CC)CS1
30 | > 46 µM | Oc1ccc(OCc2ccccc2)cc1
31 | > 46 µM | CC(C)=CCC/C(C)=C/C=C/C(C)=C/C=C/C(C)=C/C=C/C=C(C)/C=C/C=C(C)/C=C/C=C(\C)CCC=C(C)C
32 | > 46 µM | O=C([O-])CCC/C=C\C[C@@H]1[C@@H](/C=C/[C@@H](O)COc2cccc(Cl)c2)[C@H](O)C[C@@H]1O.[Na+]

Second part, the compound before the results:

Row | SMILES | IC50
33 | CC(C)c1c(CN(C)C(C)Cc2ccccc2)n(C)n(-c2ccccc2)c1=O (stereo not drawn) | > 46 µM
34 | CC(=O)Nc1ccc(OC(=O)c2ccccc2O)cc1 | > 46 µM
35 | NC(=O)CN1CCCC1=O | > 46 µM
36 | NC(=O)c1ncn([C@@H]2O[C@H](CO)[C@@H](O)[C@H]2O)c1N | > 46 µM
37 | C=CCOC(Cn1ccnc1)c1ccc(Cl)cc1Cl.O=S(=O)(O)O (stereo not drawn) | > 46 µM
38 | Cc1ccc(C(=O)Nc2ccc(S(=O)(=O)O)c3cc(S(=O)(=O)O)cc(S(=O)(=O)O)c23)cc1NC(=O)c1cccc(NC(=O)Nc2cccc(C(=O)Nc3cc(C(=O)Nc4ccc(S(=O)(=O)O)c5cc(S(=O)(=O)O)cc(S(=O)(=O)O)c45)ccc3C)c2)c1 | > 46 µM
39 | OCCOc1ccccc1 | > 46 µM
40 | CC1=CC[C@@H](CC1)[C@@](O)(C)CC\C=C(/C)C | > 46 µM
41 | O=[N+]([O-])c1ccc([As](=O)(O)O)cc1 | > 46 µM
42 | C[N+](C)(C)CCOC(=O)C(O)(c1ccccc1)c1ccccc1.[I-] | > 46 µM
43 | O=C2N1[C@]([C@@]([H])2NC(C(C(OC)=CC=C3)=C3OC)=O)([H])SC(C)(C)[C@@H]1[C@@]([O-])=O.[Na+].O | > 46 µM
44 | CC(C)(O)C(Cl)(Cl)Cl | > 46 µM
45 | CCN(CC)C(=O)/C(C#N)=C/c1cc(O)c(O)c([N+](=O)[O-])c1 | > 46 µM
46 | CCCN(CCC)C(=O)C(CCC(=O)O)NC(=O)c1ccccc1 (stereo not drawn) | > 46 µM
47 | ClC4=C(Cl)[C@]5(Cl)[C@@]2([H])[C@]([C@](Cl)4[C@](Cl)5Cl)([H])[C@H]3[C@@H]1O[C@@H]1[C@@H]2C3 | > 46 µM
48 | IC(I)I | > 46 µM
49 | CCC1NC(=O)c2cc(S(N)(=O)=O)c(Cl)cc2N1 (stereo not drawn) | > 46 µM
50 | CN[C@@H]1[C@@H](O)[C@@H](O[C@@H]2[C@@H](O)[C@H](OC3OC(CN)=CCC3N)[C@@H](N)C[C@H]2N)OC[C@]1(C)O.CN[C@@H]1[C@@H](O)[C@@H](O[C@@H]2[C@@H](O)[C@H](OC3OC(CN)=CCC3N)[C@@H](N)C[C@H]2N)OC[C@]1(C)O.O=S(=O)(O)O.O=S(=O)(O)O.O=S(=O)(O)O.O=S(=O)(O)O.O=S(=O)(O)O (stereo partly drawn) | > 46 µM

Row | SMILES | IC50
51 | CC(C)c1cccc(C(C)C)c1O | > 46 µM
52 | CCOCC(O)COc1ccc(NC(=O)CC[S+](C)C)cc1.Cc1ccc(S(=O)(=O)[O-])cc1 (stereo not drawn) | > 46 µM
53 | COc1ccc(CN(CCN(C)C)c2ncccn2)cc1.Cl | > 46 µM
54 | Nc1ccc(S(=O)(=O)Nc2ncccn2)cc1 | > 46 µM
55 | O=C1N(c2ccccc2)c2ccccc2C1(Cc1ccncc1)Cc1ccncc1 | > 46 µM
56 | O=C1c2ccccc2-c2n[nH]c3cccc1c23 | > 46 µM
57 | Cc1c(Cl)c(=O)oc2cc(OP(=O)(OCCCl)OCCCl)ccc12 | > 46 µM
58 | CCc1cc(C(N)=S)ccn1 | > 46 µM
59 | CCCCCC(C=O)=Cc1ccccc1 | > 46 µM
60 | Nc1ncn([C@H]2C[C@H](O)[C@@H](CO)O2)c(=O)n1 | > 46 µM
61 | CCC(C(N)=O)N1CCCC1=O (stereo not drawn) | > 46 µM
62 | Cc1c(-c2ccccc2)oc2c(C(=O)OCCN3CCCCC3)cccc2c1=O.Cl | > 46 µM
63 | O=C(/C=C/c1cccc(F)c1)NC1CC1 | > 46 µM
64 | CCCCC/C=C\C/C=C\CCCCCCCC(=O)OCC | > 46 µM
65 | COCCc1ccc(OCC(O)CNC(C)C)cc1.COCCc1ccc(OCC(O)CNC(C)C)cc1.O=C(O)[C@H](O)[C@@H](O)C(=O)O (stereo not drawn) | > 46 µM
66 | COc6cc7N1C(=O)CC2OC\C=C5\CN3CC[C@@]4(C1[C@H]2[C@H]5C[C@H]34)c7cc6OC (stereo partly drawn) | > 46 µM
67 | O=C(O)C(Cl)Cl | > 46 µM
68 | CCC1(c2cccc(O)c2)CCCCN(C)C1.Cl (stereo not drawn) | > 46 µM
